# Test results as given in US8686150B2 (Sanofi, priority 2011, dated 2014).
# Target: T1, human full-length recombinant PKC βII (Homo sapiens, UniProt P05771)
# T1 construct: Active human full-length recombinant PKC βII; purchased Invitrogen GmbH, Darmstadt, Germany
# Test: Determination of PKC βII inhibition (Caliper mobility-shift kinase assay, Fluorescein-RFARKGSLRQKNV peptide substrate)
# Format: biochemical
# Conditions: example compounds at a final concentration of 1.14 μM (±0.15 μM)
# Summary of the method: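 Compounds were tested at 1.14 μM final. Enzyme was activated by PS, DAG and CaCl2 in Hepes pH 7.4 with MgCl2, with substrate 3 μM and ATP 120 μM as pre-mix concentrations. After 60 min at 32 °C and an EDTA stop, Caliper separation gave fractional turnover, which was normalised to no-compound and no-enzyme controls.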
# T1 sequence (P05771 1-673 isoform P05771-2): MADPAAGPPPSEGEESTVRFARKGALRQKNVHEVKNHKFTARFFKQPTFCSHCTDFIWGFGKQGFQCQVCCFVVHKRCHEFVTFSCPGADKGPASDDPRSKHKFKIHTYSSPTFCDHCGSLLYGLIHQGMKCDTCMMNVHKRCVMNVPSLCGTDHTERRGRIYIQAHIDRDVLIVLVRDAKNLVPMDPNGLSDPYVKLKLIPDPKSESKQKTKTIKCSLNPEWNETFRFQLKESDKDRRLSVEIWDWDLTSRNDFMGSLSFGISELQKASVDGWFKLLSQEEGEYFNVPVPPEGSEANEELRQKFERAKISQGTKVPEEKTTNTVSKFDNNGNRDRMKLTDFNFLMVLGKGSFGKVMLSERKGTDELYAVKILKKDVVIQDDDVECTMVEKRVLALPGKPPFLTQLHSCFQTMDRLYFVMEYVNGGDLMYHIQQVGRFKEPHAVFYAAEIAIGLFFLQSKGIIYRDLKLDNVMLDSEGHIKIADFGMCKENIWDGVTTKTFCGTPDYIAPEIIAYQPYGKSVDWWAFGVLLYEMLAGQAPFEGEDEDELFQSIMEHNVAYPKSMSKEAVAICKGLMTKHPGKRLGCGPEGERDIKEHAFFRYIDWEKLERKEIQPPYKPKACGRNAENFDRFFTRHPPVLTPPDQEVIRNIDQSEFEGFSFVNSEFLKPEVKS
Structure (SMILES),inhibition at 1.14 µM,% Inhibition
"Cc1n[nH]c2nc(-c3ccc(O)c(F)c3)cc(C(=O)NC3CCN(C)CC3)c12 [Example 319, 6-(3-Fluoro-4-hydroxy-phenyl)-3-methyl-1H-pyrazolo[3,4-b]pyridine-4-carboxylic acid (1-methyl-piperidin-4-yl)-amide]",59%,–
"Cc1n[nH]c2nc(-c3ccc(O)cc3)cc(C(=O)N[C@H]3[C@@H]4CNC[C@@H]43)c12 [Example 214, 6-(4-Hydroxy-phenyl)-3-methyl-1H-pyrazolo[3,4-b]pyridine-4-carboxylic acid (3-azabicyclo[3.1.0]hex-6-yl)-amide]",73%,–
"Cc1n[nH]c2nc(-c3ccc(O)c(F)c3)cc(C(=O)N3CCNC(C)C3C)c12 (centres unmarked) [Example 352, (2,3-Dimethyl-piperazin-1-yl)-[6-(3-fluoro-4-hydroxy-phenyl)-3-methyl-1H-pyrazolo[3,4-b]pyridin-4-yl]-methanone]",84%,–
"Cc1n[nH]c2nc(-c3ccc(O)cc3)cc(C(=O)N3CCN(C(=O)C4CCCO4)CC3)c12 (centres unmarked) [Example 280, [6-(4-Hydroxy-phenyl)-3-methyl-1H-pyrazolo[3,4-b]pyridin-4-yl]-[4-(tetrahydro-furan-2-carbonyl)-piperazin-1-yl]-methanone]",88%,–
"Cc1n[nH]c2nc(-c3ccc(O)cc3)cc(C(=O)NCCN3CCC(c4ccccc4)C3)c12 (centres unmarked) [Example 388, 6-(4-Hydroxy-phenyl)-3-methyl-1H-pyrazolo[3,4-b]pyridine-4-carboxylic acid [2-(3-phenyl-pyrrolidin-1-yl)-ethyl]-amide]",54%,–
"CCc1n[nH]c2nc(-c3ccc(O)cc3)cc(C(=O)NC3CC4CCC(C3)N4C)c12 [Example 164, 3-Ethyl-6-(4-hydroxy-phenyl)-1H-pyrazolo[3,4-b]pyridine-4-carboxylic acid ((3R)-8-methyl-8-aza-bicyclo[3.2.1]oct-3-yl)-amide]",–,53%
"Cc1n[nH]c2nc(-c3ccc(O)cc3F)cc(C(=O)N3C[C@@H](C)N(CC4CCNCC4)C[C@@H]3C)c12 [Example 453, ((2S,5R)-2,5-Dimethyl-4-piperidin-4-ylmethyl-piperazin-1-yl)-[6-(2-fluoro-4-hydroxy-phenyl)-3-methyl-1H-pyrazolo[3,4-b]pyridin-4-yl]-methanone]",90%,–
"Cc1n[nH]c2nc(-c3ccc(O)cc3F)cc(C(=O)N3CC(C)(C)NCC3(C)C)c12 [Example 63, [6-(2-Fluoro-4-hydroxy-phenyl)-3-methyl-1H-pyrazolo[3,4-b]pyridin-4-yl]-(2,2,5,5-tetramethyl-piperazin-1-yl)-methanone]",100%,–
"CCc1n[nH]c2nc(-c3ccc(O)cc3)cc(C(=O)N3CC4(CCNCC4)C3)c12 [Example 169, (2,7-Diaza-spiro[3.5]non-2-yl)-[3-ethyl-6-(4-hydroxy-phenyl)-1H-pyrazolo[3,4-b]pyridin-4-yl]-methanone]",84%,–
"Cc1n[nH]c2nc(-c3ccc(O)cc3)cc(C(=O)N3CCNCC34CC4)c12 [Example 80, (4,7-Diaza-spiro[2.5]oct-4-yl)-[6-(4-hydroxy-phenyl)-3-methyl-1H-pyrazolo[3,4-b]pyridin-4-yl]-methanone]",91%,–
"Cc1n[nH]c2nc(-c3ccc(O)cc3)cc(C(=O)N3CCN[C@@H](C(C)C)C3)c12 [Example 233, [6-(4-Hydroxy-phenyl)-3-methyl-1H-pyrazolo[3,4-b]pyridin-4-yl]-((S)-3-isopropyl-piperazin-1-yl)-methanone]",95%,–
"CCc1n[nH]c2nc(-c3ccc(O)cc3)cc(C(=O)N3C[C@]4(C)CN(C)C[C@](C)(C3)C4O)c12 (stereo partly drawn) [Example 179, [3-Ethyl-6-(4-hydroxy-phenyl)-1H-pyrazolo[3,4-b]pyridin-4-yl]-((1S,5R)-9-hydroxy-1,5,7-trimethyl-3,7-diaza-bicyclo[3.3.1]non-3-yl)-methanone]",55%,–
"Cc1n[nH]c2nc(-c3ccc(O)cc3)cc(C(=O)NC3CCN(CCc4ccccc4)CC3)c12 [Example 382, 6-(4-Hydroxy-phenyl)-3-methyl-1H-pyrazolo[3,4-b]pyridine-4-carboxylic acid (1-phenethyl-piperidin-4-yl)-amide]",67%,–
"Cc1cc(O)ccc1-c1cc(C(=O)NCC2(N)CCCCCC2)c2c(C)n[nH]c2n1 [Example 148, 6-(4-Hydroxy-2-methyl-phenyl)-3-methyl-1H-pyrazolo[3,4-b]pyridine-4-carboxylic acid (1-amino-cycloheptylmethyl)-amide]",85%,–
"Cc1n[nH]c2nc(-c3ccc(O)cc3F)cc(C(=O)N3CCN[C@@H](C)[C@H]3C)c12 (racemic) [Example 442, ((cis)-2,3-Dimethyl-piperazin-1-yl)-[6-(2-fluoro-4-hydroxy-phenyl)-3-methyl-1H-pyrazolo[3,4-b]pyridin-4-yl]-methanone]",97%,–
"Cc1n[nH]c2nc(-c3ccc(O)cc3)cc(C(=O)N3CCNCC3c3ccco3)c12 (centres unmarked) [Example 30, (2-Furan-2-yl-piperazin-1-yl)-[6-(4-hydroxy-phenyl)-3-methyl-1H-pyrazolo[3,4-b]pyridin-4-yl]-methanone]",96%,–

Structure (SMILES),inhibition at 1.14 µM,% Inhibition
"Cc1n[nH]c2nc(-c3ccc(O)cc3)cc(C(=O)NC3CCCN(C)C3)c12 (centres unmarked) [Example 275, 6-(4-Hydroxy-phenyl)-3-methyl-1H-pyrazolo[3,4-b]pyridine-4-carboxylic acid (1-methyl-piperidin-3-yl)-amide]",89%,–
"CCc1n[nH]c2nc(-c3ccc(O)cc3)cc(C(=O)NC3CC4CCC(C3)N4C)c12 (centres unmarked) [Example 163, 3-Ethyl-6-(4-hydroxy-phenyl)-1H-pyrazolo[3,4-b]pyridine-4-carboxylic acid (8-methyl-8-aza-bicyclo[3.2.1]oct-3-yl)-amide]",57%,–
"Cc1n[nH]c2nc(-c3ccc(O)cc3)cc(C(=O)NCC(C)(C)CN)c12 [Example 270, 6-(4-Hydroxy-phenyl)-3-methyl-1H-pyrazolo[3,4-b]pyridine-4-carboxylic acid (3-amino-2,2-dimethyl-propyl)-amide]",87%,–
"Cc1n[nH]c2nc(-c3ccc(O)c(F)c3)cc(C(=O)NC3CCC(N)CC3)c12 (centres unmarked) [Example 338, 6-(3-Fluoro-4-hydroxy-phenyl)-3-methyl-1H-pyrazolo[3,4-b]pyridine-4-carboxylic acid (4-amino-cyclohexyl)-amide]",68%,–
"Cc1n[nH]c2nc(-c3ccc(O)cc3F)cc(C(=O)N3CCNCC34CCCC4)c12 [Example 433, (6,9-Diaza-spiro[4.5]dec-6-yl)-[6-(2-fluoro-4-hydroxy-phenyl)-3-methyl-1H-pyrazolo[3,4-b]pyridin-4-yl]-methanone]",98%,–
"Cc1n[nH]c2nc(-c3ccc(O)cc3)cc(C(=O)N3CCNCC3(C)c3ccccc3)c12 (centres unmarked) [Example 1, [6-(4-Hydroxy-phenyl)-3-methyl-1H-pyrazolo[3,4-b]pyridin-4-yl]-(2-methyl-2-phenyl-piperazin-1-yl)-methanone]",98%,–
"Cc1n[nH]c2nc(-c3ccc(O)cc3)cc(C(=O)N3CCNCC3c3ccc(F)cc3F)c12 (centres unmarked) [Example 96, [2-(2,4-Difluoro-phenyl)-piperazin-1-yl]-[6-(4-hydroxy-phenyl)-3-methyl-1H-pyrazolo[3,4-b]pyridin-4-yl]-methanone]",98%,–
"CC1(C)CNCCN1C(=O)c1cc(-c2ccc(O)cc2)nc2[nH]nc(C3CC3)c12 [Example 157, [3-Cyclopropyl-6-(4-hydroxy-phenyl)-1H-pyrazolo[3,4-b]pyridin-4-yl]-(2,2-dimethyl-piperazin-1-yl)-methanone]",91%,–
"COc1ccc(C2CNCCN2C(=O)c2cc(-c3ccc(O)cc3C)nc3[nH]nc(C)c23)cc1 (centres unmarked) [Example 140, [6-(4-Hydroxy-2-methyl-phenyl)-3-methyl-1H-pyrazolo[3,4-b]pyridin-4-yl]-[2-(4-methoxy-phenyl)-piperazin-1-yl]-methanone]",98%,–
"O=C(c1cc(-c2ccc(O)cc2)nc2[nH]nc(C(F)(F)F)c12)N1CC2CNCC2C1 (centres unmarked) [Example 400, (Hexahydro-pyrrolo[3,4-c]pyrrol-2-yl)-[6-(4-hydroxy-phenyl)-3-trifluoromethyl-1H-pyrazolo[3,4-b]pyridin-4-yl]-methanone]",62%,–
"CCc1n[nH]c2nc(-c3ccc(O)cc3)cc(C(=O)N3CCNCC3)c12 [Example 3, [3-Ethyl-6-(4-hydroxy-phenyl)-1H-pyrazolo[3,4-b]pyridin-4-yl]-piperazin-1-yl-methanone]",82%,–
"Cc1cc(O)ccc1-c1cc(C(=O)N2CCNCC2c2ccccc2F)c2c(C)n[nH]c2n1 (centres unmarked) [Example 151, [2-(2-Fluoro-phenyl)-piperazin-1-yl]-[6-(4-hydroxy-2-methyl-phenyl)-3-methyl-1H-pyrazolo[3,4-b]pyridin-4-yl]-methanone]",96%,–
"Cc1n[nH]c2nc(-c3ccc(O)cc3)cc(C(=O)N3CCCC4CNCCC43)c12 (centres unmarked) [Example 230, [6-(4-Hydroxy-phenyl)-3-methyl-1H-pyrazolo[3,4-b]pyridin-4-yl]-(octahydro-[1,6]naphthyridin-1-yl)-methanone]",93%,–
"Cc1n[nH]c2nc(-c3ccc(O)cc3)cc(C(=O)N3CCNCC3c3ccccc3F)c12 (centres unmarked) [Example 95, [2-(2-Fluoro-phenyl)-piperazin-1-yl]-[6-(4-hydroxy-phenyl)-3-methyl-1H-pyrazolo[3,4-b]pyridin-4-yl]-methanone]",99%,–
"Cc1n[nH]c2nc(-c3ccc(O)cc3F)cc(C(=O)N3CCNC(C)(C)C3)c12 [Example 425, (3,3-Dimethyl-piperazin-1-yl)-[6-(2-fluoro-4-hydroxy-phenyl)-3-methyl-1H-pyrazolo[3,4-b]pyridin-4-yl]-methanone]",88%,–
"Cc1n[nH]c2nc(-c3ccc(O)cc3)cc(C(=O)NCC(c3ccccc3)N3CCOCC3)c12 (centres unmarked) [Example 394, 6-(4-Hydroxy-phenyl)-3-methyl-1H-pyrazolo[3,4-b]pyridine-4-carboxylic acid (2-morpholin-4-yl-2-phenyl-ethyl)-amide]",23%,–
